Key:
Beauveria bassiana = assay: Microbial viability of liquid carrier concentrates upon accelerated storage stability study (shelf-life), colony counting; type: cell-based; conditions: storage at 25° C. without agitation
Procedure: (§1) Standard procedure for microbial viability assessment of liquid carrier concentrates upon accelerated storage stability study (Shelf-life assessment) In order to evaluate the shelf-life of liquid carrier concentrate of the fungi, the liquid carrier concentrates were prepared by mixing 5 wt % of a commercial product (biopesticide) containing a beneficial microorganism and 95 wt % of the solvent to be tested.
(§2) The commercial products tested were in powder form, and the beneficial microorganisms in the composition were: • Beauveria bassiana, • Paecilomyces lilacinus.
(§3) For comparison, a control experiment without the solvent was prepared. For Beauveria bassiana and Paecilomyces lilacinus, 5 wt % of the powder commercial product was added to 95 wt % soybean oil, 2-ethylhexyl lactate or isoamyl laurate.
(§4) The preparations were incubated under accelerated temperature test conditions, at 25° C. and the viability of the microorganism was evaluated after 0, 15 days, 1 month, 3 months, 6 months, 9 months, 12 months and 14 months of incubation without agitation. Trials were performed in duplicates.
(§5) To confirm that the microorganisms were viable after determined incubation/storage time, traditional serial dilution and plating of the samples for colony counting were performed.
(§6) For fungi evaluation, samples of 0.1 mL were taken from each preparation and added to 0.9 mL of an aqueous solution containing 0.1% of Tween 80 (polyoxyethylene sorbitan monooleate) to obtain a 10^−1 dilution. Then 0.1 mL of this dilution was added to 0.9 mL of the same aqueous solution successively until the most appropriate dilution was obtained (usually between 10-4 and 10-7). 0.2 mL of the most appropriate dilutions were spread into petri dishes containing the proper culture media for each microorganism and incubated (at 25° C. for Beauveria bassiana and Paecilomyces lilacinus), until the colony grew.
(§7) The number of the colonies on each petri dish was counted and the results are expressed by colony forming units (CFU)/mL.
(§8) Shelf-life assessment was done on two different fungi (Beauveria bassiana and Paecilomyces lilacinus) in Augeo SL191 solvent (formula (I), with R1, R2: methyl, and R3: H) and in three other benchmark solvents or oils according to the experimental procedures described above. For each microorganism, isoamyl laurate was tested in a different run series which explains the difference between its initial microorganism concentration (CFU/mL) and the one of the other three solvents. The recurrent colony counting was done at different incubation times: t=0, 15 days, 1 month, then every month until the CFU/mL value of a sample drops by two log 10 scale (>100 times), i.e. a reduction of 99%.

Paecilomyces lilacinus = assay: as above; type: cell-based; conditions: storage at 25° C. without agitation
Procedure: as §1, §2, §3, §4, §5, §6, §7, §8

SMILES | Viability after 14 months (Beauveria bassiana; 14 months) | Viability after 14 months (Paecilomyces lilacinus; 14 months) | Viability after 1 month (Beauveria bassiana; 1 month) | Viability after 1 month (Paecilomyces lilacinus; 1 month)
CC1(C)OCC(CO)O1 (stereo not shown) [Augeo SL191, Solketal] | above 1E+06 CFU/mL | above 1E+06 CFU/mL | – | –
CCCCC(CC)COC(=O)C(C)O (stereo not shown) [2-ethyl hexyl lactate, 2-ethylhexyl lactate] | – | – | less than 1E+05 CFU/mL | less than 1E+05 CFU/mL
